Like-named read-outs stand apart in the source and are kept apart here.
Tested on: phosphorylation of AKT in HCC70 cells
Assay: Cellular assay: phosphorylation of AKT in HCC70 cells (western blotting)
Type: cell-based
Details: Homo sapiens, HCC70, 1 h
Description: Cellular activity of PI3Kβ inhibitors was determined by quantifying the phosphorylation of AKT in HCC70 cells. AKT phosphorylated at Ser473 and Thr308 were measured using western blotting and specific primary antibodies from Cell Signaling (CST), Danvers, MA. On day 1, HCC70 cells (ATCC #CRL-2315) were seeded into Falcon 12-well cell Culture Plate (Corning #353043) at 100,000 cells per well, in 1 ml complete culture medium (RPMI-1640, GIBCO #11875093) containing 10% heat inactivated FBS (GIBCO #10438026), 1% Pen-Strep (GIBCO #15140122) and incubated at 37° AC, 5% CO2 overnight. On day 2, compound (500 nM) or DMSO (0.1%, Sigma Aldrich #8418) was added and cells were further incubated for 60 min at 37° AC, 5% CO2 in a total volume of 1 ml fresh medium.
At the end of the cell treatment period, media were removed by aspiration and adherent cells were lysed in 100 uL RIPA buffer (Sigma Aldrich #R0278). Equal volume (15 uL) of proteins was resolved by SDS-PAGE and transferred to PVDF (Millipore #IPFL00010) membrane for immunoblot analysis. Primary antibodies to the following proteins were used for immunoblotting: phosphor-AKT (Ser473) (CST #4060), phosphor-AKT (Thr308) (CST #2965), total AKT (CST #9272). Secondary goat anti-rabbit IgG fluorophore conjugated antibody (Invitrogen #A21109) was used to visualize the indicated proteins on an Odyssey CLx imaging system (Li-Cor). Quantification of band intensities was performed using Odyssey 3.0 software. Inhibition of Akt activity was calculated by band intensities using the formula: […]
Index was evaluated by % of AI. Data represent Index+(20˜60%), ++(60%˜80%), +++(80%˜90%), and ++++>90%.

[1] = HCC70 cells, compound 500 nM, 60 min, inhibition of Akt activity from band intensities, read-out: Index of AI (HCC70) p-AKT Thr 308
[2] = HCC70 cells, compound 500 nM, 60 min, inhibition of Akt activity from band intensities, read-out: Index of AI (HCC70) p-AKT ser 473

Question: Which results are given for `C[C@H]1Cc2c(F)cc(F)cc2N1Cc1cc(C(=O)N(C)C)cc2c(=O)cc(N3CCOCC3)oc12` (single isomer, unassigned) [Compound 64]?
Answer: inhibition at 0.5 µM [1]: > 90%; inhibition at 0.5 µM [2]: > 90%

Question: `C[C@@H]1Cc2c(F)cc(F)cc2N1Cc1cc(C(=O)N(C)C)cc2c(=O)cc(N3CCOCC3)oc12` (single isomer, unassigned) [Compound 65] was tested. Which inhibition at 0.5 µM [1] did it give?
Answer: 20 to 60%

Question: What about the inhibition at 0.5 µM [2] of the same molecule?
Answer: 20 to 60%

Question: For `C[C@H]1Cc2c(F)cccc2N1Cc1cc(C(=O)N(C)C)cc2c(=O)cc(N3CCOCC3)oc12` (single isomer, unassigned) [Compound 102], which inhibition at 0.5 µM [1] is on record?
Answer: > 90%

Question: What about the inhibition at 0.5 µM [2] of the same molecule?
Answer: > 90%

Question: Which inhibition at 0.5 µM [1] does the source give for `O=c1cc(N2CCOCC2)oc2c(CNc3cc(F)cc(F)c3)cc(N3CCOCC3)cc12` [Compound 1, 8-(((3,5-difluorophenyl)amino)methyl)-2,6-dimorpholino-4H-chromen-4-one] here?
Answer: 60 to 80%

Question: And the inhibition at 0.5 µM [2]?
Answer: 60 to 80%

Question: What does the source list for `CN(C)c1cc(CNc2cc(F)cc(F)c2)c2oc(N3CCOCC3)cc(=O)c2c1` [Compound 2, 8-(((3,5-difluorophenyl)amino)methyl)-6-(dimethylamino)-2-morpholino-4H-chromen-4-one]?
Answer: inhibition at 0.5 µM [1]: 60 to 80%; inhibition at 0.5 µM [2]: 60 to 80%

Question: Which results are given for `N#Cc1cc(CNc2cc(F)cc(F)c2)c2oc(N3CCOCC3)cc(=O)c2c1` [Compound 3, 8-(((3,5-difluorophenyl)amino)methyl)-2-morpholino-4-oxo-4H-chromene-6-carbonitrile]?
Answer: inhibition at 0.5 µM [1]: 60 to 80%; inhibition at 0.5 µM [2]: 60 to 80%

Question: Which results are given for `CCOc1cc(CNc2cc(F)cc(F)c2)c2oc(N3CCOCC3)cc(=O)c2c1` [Compound 4, 8-(((3,5-difluorophenyl)amino)methyl)-6-ethoxy-2-morpholino-4H-chromen-4-one]?
Answer: inhibition at 0.5 µM [1]: 60 to 80%; inhibition at 0.5 µM [2]: 60 to 80%

Question: What does the source list for `C#Cc1cc(CNc2cc(F)cc(F)c2)c2oc(N3CCOCC3)cc(=O)c2c1` [Compound 5, 8-(((3,5-difluorophenyl)amino)methyl)-6-ethynyl-2-morpholino-4H-chromen-4-one]?
Answer: inhibition at 0.5 µM (read-out: Index of AI (HCC70) p-AKT Thr 308): 60 to 80%; inhibition at 0.5 µM (read-out: Index of AI (HCC70) p-AKT ser 473): 60 to 80%

Question: Which inhibition at 0.5 µM [1] does the source give for `O=c1cc(N2CCOCC2)oc2c(CNc3cc(F)cc(F)c3)cc(C3CC3)cc12` [Compound 6, 6-cyclopropyl-8-(((3,5-difluorophenyl)amino)methyl)-2-morpholino-4H-chromen-4-one] here?
Answer: 60 to 80%

Question: And the inhibition at 0.5 µM [2]?
Answer: 60 to 80%

Question: With `CN(C)C(=O)Nc1cc(CNc2cc(F)cc(F)c2)c2oc(N3CCOCC3)cc(=O)c2c1` [Compound 7, 3-(8-(((3,5-difluorophenyl)amino)methyl)-2-morpholino-4-oxo-4H-chromen-6-yl)-1,1-dimethylurea] as the molecule, how does the inhibition at 0.5 µM [1] read?
Answer: 60 to 80%

Question: And the inhibition at 0.5 µM [2]?
Answer: 60 to 80%

Question: What does the source list for `CC(=O)Nc1cc(CNc2cc(F)cc(F)c2)c2oc(N3CCOCC3)cc(=O)c2c1` [Compound 8, N-(8-(((3,5-difluorophenyl)amino)methyl)-2-morpholino-4-oxo-4H-chromen-6-yl)acetamide]?
Answer: inhibition at 0.5 µM [1]: 60 to 80%; inhibition at 0.5 µM [2]: 60 to 80%

Question: What does the source list for `CC(=O)N(C)c1cc(C(C)Nc2cc(F)cc(F)c2)c2oc(N3CCOCC3)cc(=O)c2c1` (centres unmarked) [Compound 9, N-(8-(1-((3,5-difluorophenyl)amino)ethyl)-2-morpholino-4-oxo-4H-chromen-6-yl)-N-methylacetamide]?
Answer: inhibition at 0.5 µM [1]: 80 to 90%; inhibition at 0.5 µM [2]: 80 to 90%

Question: With `CCC(=O)Nc1cc(C(C)Nc2cc(F)cc(F)c2)c2oc(N3CCOCC3)cc(=O)c2c1` (centres unmarked) [Compound 11, N-(8-(1-((3,5-difluorophenyl)amino)ethyl)-2-morpholino-4-oxo-4H-chromen-6-yl)propionamide] as the molecule, how does the inhibition at 0.5 µM [1] read?
Answer: > 90%

Question: And the inhibition at 0.5 µM [2]?
Answer: > 90%

Question: What does the source list for `CC(Nc1cc(F)cc(F)c1)c1cc(N=C(N)N)cc2c(=O)cc(N3CCOCC3)oc12` (centres unmarked) [Compound 14, 2-(8-(1-((3,5-difluorophenyl)amino)ethyl)-2-morpholino-4-oxo-4H-chromen-6-yl)guanidine]?
Answer: inhibition at 0.5 µM [1]: 20 to 60%; inhibition at 0.5 µM [2]: 20 to 60%

Question: With `CC(Nc1cc(F)cc(F)c1)c1cc(S(=O)(=O)N2CC(N)C2)cc2c(=O)cc(N3CCOCC3)oc12` (centres unmarked) [Compound 17, 6-((3-aminoazetidin-1-yl)sulfonyl)-8-(1-((3,5-difluorophenyl)amino)ethyl)-2-morpholino-4H-chromen-4-one] as the molecule, how does the inhibition at 0.5 µM [1] read?
Answer: 60 to 80%

Question: What about the inhibition at 0.5 µM [2] of the same molecule?
Answer: 60 to 80%

Question: Which inhibition at 0.5 µM [1] does the source give for `CC(Nc1cc(F)cc(F)c1)c1cc(NC2=NCCN2)cc2c(=O)cc(N3CCOCC3)oc12` (centres unmarked) [Compound 20, 8-(1-((3,5-difluorophenyl)amino)ethyl)-6-((4,5-dihydro-1H-imidazol-2-yl)amino)-2-morpholino-4H-chromen-4-one] here?
Answer: 60 to 80%

Question: What about the inhibition at 0.5 µM [2] of the same molecule?
Answer: 60 to 80%

Question: `CC(Nc1cc(F)cc(F)c1)c1cc(NC(=O)CC#N)cc2c(=O)cc(N3CCOCC3)oc12` (centres unmarked) [Compound 22, 2-cyano-N-(8-(1-((3,5-difluorophenyl)amino)ethyl)-2-morpholino-4-oxo-4H-chromen-6-yl)acetamide] was tested. Which inhibition at 0.5 µM [1] did it give?
Answer: > 90%

Question: And the inhibition at 0.5 µM [2]?
Answer: > 90%

Question: Which results are given for `C/C(O)=C(\C#N)C(=O)Nc1cc(C(C)Nc2cc(F)cc(F)c2)c2oc(N3CCOCC3)cc(=O)c2c1` (centres unmarked) [Compound 23, (Z)-2-cyano-N-(8-(1-((3,5-difluorophenyl)amino)ethyl)-2-morpholino-4-oxo-4H-chromen-6-yl)-3-hydroxybut-2-enamide]?
Answer: inhibition at 0.5 µM [1]: 60 to 80%; inhibition at 0.5 µM [2]: 60 to 80%

Question: How did the inhibition at 0.5 µM [1] turn out when `CC(Nc1cc(F)cc(F)c1)c1cc(CC(=O)N(C)C)cc2c(=O)cc(N3CCOCC3)oc12` (centres unmarked) [Compound 24, 2-(8-(1-((3,5-difluorophenyl)amino)ethyl)-2-morpholino-4-oxo-4H-chromen-6-yl)-N,N-dimethylacetamide] was run?
Answer: > 90%

Question: And the inhibition at 0.5 µM [2]?
Answer: > 90%

Question: Which results are given for `CC(Nc1cc(F)cc(F)c1)c1cc(C(=O)N2CC3(C2)CS(=O)(=O)C3)cc2c(=O)cc(N3CCOCC3)oc12` (centres unmarked) [Compound 28, 8-(1-((3,5-difluorophenyl)amino)ethyl)-6-(2,2-dioxido-2-thia-6-azaspiro[3.3]heptane-6-carbonyl)-2-morpholino-4H-chromen-4-one]?
Answer: inhibition at 0.5 µM [1]: 60 to 80%; inhibition at 0.5 µM [2]: 60 to 80%

Question: Which results are given for `CCC(Nc1cc(F)cc(F)c1)c1cc(C(=O)N(C)C)cc2c(=O)cc(N3CCOCC3)oc12` (centres unmarked) [Compound 31, 8-(1-((3,5-difluorophenyl)amino)propyl)-N,N-dimethyl-2-morpholino-4-oxo-4H-chromene-6-carboxamide]?
Answer: inhibition at 0.5 µM [1]: > 90%; inhibition at 0.5 µM [2]: > 90%

Question: How did the inhibition at 0.5 µM [1] turn out when `CN(C)C(=O)c1cc(CN2CCc3cccc(Cl)c32)c2oc(N3CCOCC3)cc(=O)c2c1` [Compound 36, 8-((7-chloroindolin-1-yl)methyl)-N,N-dimethyl-2-morpholino-4-oxo-4H-chromene-6-carboxamide] was run?
Answer: > 90%

Question: And the inhibition at 0.5 µM [2]?
Answer: > 90%

Question: What does the source list for `CC(c1cc(C(=O)N(C)C)cc2c(=O)cc(N3CCOCC3)oc12)N1CCc2c(F)cc(F)cc21` (centres unmarked) [Compound 37, 8-(1-(4,6-difluoroindolin-1-yl)ethyl)-N,N-dimethyl-2-morpholino-4-oxo-4H-chromene-6-carboxamide]?
Answer: inhibition at 0.5 µM [1]: 80 to 90%; inhibition at 0.5 µM [2]: 80 to 90%

Question: With `CN(C)CCN(C)C(=O)c1cc(CN2CCc3c(F)cc(F)cc32)c2oc(N3CCOCC3)cc(=O)c2c1` [Compound 40, 8-((4,6-difluoroindolin-1-yl)methyl)-N-(2-(dimethylamino)ethyl)-N-methyl-2-morpholino-4-oxo-4H-chromene-6-carboxamide] as the molecule, how does the inhibition at 0.5 µM [1] read?
Answer: > 90%

Question: And the inhibition at 0.5 µM [2]?
Answer: > 90%

Question: Which results are given for `O=C(c1cc(CN2CCc3c(F)cc(F)cc32)c2oc(N3CCOCC3)cc(=O)c2c1)N1CCOCC1` [Compound 41, 8-((4,6-difluoroindolin-1-yl)methyl)-6-(morpholine-4-carbonyl)-2-morpholino-4H-chromen-4-one]?
Answer: inhibition at 0.5 µM [1]: 80 to 90%; inhibition at 0.5 µM [2]: 80 to 90%

Question: `CN(C)C1CCN(C(=O)c2cc(CN3CCc4c(F)cc(F)cc43)c3oc(N4CCOCC4)cc(=O)c3c2)C1` (centres unmarked) [Compound 43, 8-((4,6-difluoroindolin-1-yl)methyl)-6-(3-(dimethylamino)pyrrolidine-1-carbonyl)-2-morpholino-4H-chromen-4-one] was tested. Which inhibition at 0.5 µM [1] did it give?
Answer: 80 to 90%

Question: And the inhibition at 0.5 µM [2]?
Answer: 80 to 90%

Question: Which inhibition at 0.5 µM [1] does the source give for `O=C(c1cc(CN2CCc3c(F)cc(F)cc32)c2oc(N3CCOCC3)cc(=O)c2c1)N1CCC1` [Compound 45, 6-(azetidine-1-carbonyl)-8-((4,6-difluoroindolin-1-yl)methyl)-2-morpholino-4H-chromen-4-one] here?
Answer: > 90%

Question: What about the inhibition at 0.5 µM [2] of the same molecule?
Answer: > 90%

Question: How did the inhibition at 0.5 µM [1] turn out when `CN(C)C1CN(C(=O)c2cc(CN3CCc4c(F)cc(F)cc43)c3oc(N4CCOCC4)cc(=O)c3c2)C1` [Compound 46, 8-((4,6-difluoroindolin-1-yl)methyl)-6-(3-(dimethylamino)azetidine-1-carbonyl)-2-morpholino-4H-chromen-4-one] was run?
Answer: 80 to 90%

Question: And the inhibition at 0.5 µM [2]?
Answer: 80 to 90%

Reference: US20240166617A1, “PHOSPHOINOSITIDE 3 KINASE BETA INHIBITORS AND COMPOSITIONS AND METHODS THEREOF” (Geode Therapeutics Inc., priority 2021, published 2024)
